Columns and labels:
Format in all cases: in vivo
Viola arvensis [1] = assay: Herbicidal activity, postemergence test; settings: post; sprayed onto seedling plants, 800 g of active material per hectare; evaluated 2 weeks after treatment
Procedure, shortened: (§1)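 First, test compound in acetone containing 0.4% Triton X-155 is diluted with water. Next, it is sprayed at 800 g/ha (900 L/ha) onto freshly seeded loam (pre) or onto seedlings (post). Finally, plants are scored 0-9 visually after 3 or 2 weeks, respectively.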

Galium aparine [2] = assay: Herbicidal activity, postemergence test; settings: post; sprayed onto seedling plants, 800 g of active material per hectare; evaluated 2 weeks after treatment
Procedure, shortened: as §1

Gossypium hirsutum [3] = assay: Herbicidal activity, postemergence test; settings: post; sprayed onto seedling plants, 800 g of active material per hectare; evaluated 2 weeks after treatment
Procedure, shortened: as §1

Ambrosia artemisifolia [4] = assay: Herbicidal activity, postemergence test; settings: post; sprayed onto seedling plants, 800 g of active material per hectare; evaluated 2 weeks after treatment
Procedure, shortened: as §1

Hordeum vulgare [5] = assay: Herbicidal activity, postemergence test; settings: post; sprayed onto seedling plants, 800 g of active material per hectare; evaluated 2 weeks after treatment
Procedure, shortened: as §1

Amaranthus retroflexus [6] = assay: Herbicidal activity, postemergence test; settings: post; sprayed onto seedling plants, 800 g of active material per hectare; evaluated 2 weeks after treatment
Procedure, shortened: as §1

Ipomoea hederacea [7] = assay: Herbicidal activity, postemergence test; settings: post; sprayed onto seedling plants, 800 g of active material per hectare; evaluated 2 weeks after treatment
Procedure, shortened: as §1

Zea mays [8] = assay: Herbicidal activity, postemergence test; settings: post; sprayed onto seedling plants, 800 g of active material per hectare; evaluated 2 weeks after treatment
Procedure, shortened: as §1

Stellaria media [9] = assay: Herbicidal activity, postemergence test; settings: post; sprayed onto seedling plants, 800 g of active material per hectare; evaluated 2 weeks after treatment
Procedure, shortened: as §1

Abutilon theophrasti [10] = assay: Herbicidal activity, postemergence test; settings: post; sprayed onto seedling plants, 800 g of active material per hectare; evaluated 2 weeks after treatment
Procedure, shortened: as §1

Glycine max [11] = assay: Herbicidal activity, postemergence test; settings: post; sprayed onto seedling plants, 800 g of active material per hectare; evaluated 2 weeks after treatment
Procedure, shortened: as §1

Veronica persica [12] = assay: Herbicidal activity, postemergence test; settings: post; sprayed onto seedling plants, 800 g of active material per hectare; evaluated 2 weeks after treatment
Procedure, shortened: as §1

Lamium purpureum [13] = assay: Herbicidal activity, postemergence test; settings: post; sprayed onto seedling plants, 800 g of active material per hectare; evaluated 2 weeks after treatment
Procedure, shortened: as §1

Triticum aestivum [14] = assay: Herbicidal activity, postemergence test; settings: post; sprayed onto seedling plants, 800 g of active material per hectare; evaluated 2 weeks after treatment
Procedure, shortened: as §1

Setaria viridis [15] = assay: Herbicidal activity, postemergence test; settings: post; sprayed onto seedling plants, 800 g of active material per hectare; evaluated 2 weeks after treatment
Procedure, shortened: as §1

Echinochloa crus-galli [16] = assay: Herbicidal activity, postemergence test; settings: post; sprayed onto seedling plants, 800 g of active material per hectare; evaluated 2 weeks after treatment
Procedure, shortened: as §1

Alopecurus myosuroides [17] = assay: Herbicidal activity, postemergence test; settings: post; sprayed onto seedling plants, 800 g of active material per hectare; evaluated 2 weeks after treatment
Procedure, shortened: as §1

Helianthus annuus [18] = assay: Herbicidal activity, postemergence test; settings: post; sprayed onto seedling plants, 800 g of active material per hectare; evaluated 2 weeks after treatment
Procedure, shortened: as §1

Viola arvensis [19] = assay: Herbicidal activity, preemergence test; settings: pre; sprayed onto soil, 800 g of active material per hectare; evaluated 3 weeks after treatment
Procedure, shortened: as §1

Galium aparine [20] = assay: Herbicidal activity, preemergence test; settings: pre; sprayed onto soil, 800 g of active material per hectare; evaluated 3 weeks after treatment
Procedure, shortened: as §1

Gossypium hirsutum [21] = assay: Herbicidal activity, preemergence test; settings: pre; sprayed onto soil, 800 g of active material per hectare; evaluated 3 weeks after treatment
Procedure, shortened: as §1

Ambrosia artemisifolia [22] = assay: Herbicidal activity, preemergence test; settings: pre; sprayed onto soil, 800 g of active material per hectare; evaluated 3 weeks after treatment
Procedure, shortened: as §1

Hordeum vulgare [23] = assay: Herbicidal activity, preemergence test; settings: pre; sprayed onto soil, 800 g of active material per hectare; evaluated 3 weeks after treatment
Procedure, shortened: as §1

Amaranthus retroflexus [24] = assay: Herbicidal activity, preemergence test; settings: pre; sprayed onto soil, 800 g of active material per hectare; evaluated 3 weeks after treatment
Procedure, shortened: as §1

Ipomoea hederacea [25] = assay: Herbicidal activity, preemergence test; settings: pre; sprayed onto soil, 800 g of active material per hectare; evaluated 3 weeks after treatment
Procedure, shortened: as §1

Zea mays [26] = assay: Herbicidal activity, preemergence test; settings: pre; sprayed onto soil, 800 g of active material per hectare; evaluated 3 weeks after treatment
Procedure, shortened: as §1

Abutilon theophrasti [27] = assay: Herbicidal activity, preemergence test; settings: pre; sprayed onto soil, 800 g of active material per hectare; evaluated 3 weeks after treatment
Procedure, shortened: as §1

Glycine max [28] = assay: Herbicidal activity, preemergence test; settings: pre; sprayed onto soil, 800 g of active material per hectare; evaluated 3 weeks after treatment
Procedure, shortened: as §1

Veronica persica [29] = assay: Herbicidal activity, preemergence test; settings: pre; sprayed onto soil, 800 g of active material per hectare; evaluated 3 weeks after treatment
Procedure, shortened: as §1

Lamium purpureum [30] = assay: Herbicidal activity, preemergence test; settings: pre; sprayed onto soil, 800 g of active material per hectare; evaluated 3 weeks after treatment
Procedure, shortened: as §1

Triticum aestivum [31] = assay: Herbicidal activity, preemergence test; settings: pre; sprayed onto soil, 800 g of active material per hectare; evaluated 3 weeks after treatment
Procedure, shortened: as §1

Setaria viridis [32] = assay: Herbicidal activity, preemergence test; settings: pre; sprayed onto soil, 800 g of active material per hectare; evaluated 3 weeks after treatment
Procedure, shortened: as §1

Echinochloa crus-galli [33] = assay: Herbicidal activity, preemergence test; settings: pre; sprayed onto soil, 800 g of active material per hectare; evaluated 3 weeks after treatment
Procedure, shortened: as §1

Alopecurus myosuroides [34] = assay: Herbicidal activity, preemergence test; settings: pre; sprayed onto soil, 800 g of active material per hectare; evaluated 3 weeks after treatment
Procedure, shortened: as §1

Helianthus annuus [35] = assay: Herbicidal activity, preemergence test; settings: pre; sprayed onto soil, 800 g of active material per hectare; evaluated 3 weeks after treatment
Procedure, shortened: as §1

Stellaria media [36] = assay: Herbicidal activity, preemergence test; settings: pre; sprayed onto soil, 800 g of active material per hectare; evaluated 3 weeks after treatment
Procedure, shortened: as §1

## CC(NC(=O)c1nnc(-c2ccccc2)o1)c1cccs1 (racemic) [Example 1]
Viola arvensis [1]
  VIOAR control rating (0-9): 9 (complete kill)
Galium aparine [2]
  GALAP control rating (0-9): 6 (herbicidal effect)
Gossypium hirsutum [3]
  GOSHI control rating (0-9): 9 (complete kill)
Ambrosia artemisifolia [4]
  AMBEL control rating (0-9): 8 (approaching complete kill)
Hordeum vulgare [5]
  HORVW control rating (0-9): 5 (definite injury)
Amaranthus retroflexus [6]
  AMARE control rating (0-9): 9 (complete kill)
Ipomoea hederacea [7]
  IPOHE control rating (0-9): 5 (definite injury)
Zea mays [8]
  ZEAMX control rating (0-9): 3 (moderate effect)
Stellaria media [9]
  STEME control rating (0-9): 9 (complete kill)
Abutilon theophrasti [10]
  ABUTH control rating (0-9): 8 (approaching complete kill)
Glycine max [11]
  GLXMA control rating (0-9): 8 (approaching complete kill)
Veronica persica [12]
  VERPE control rating (0-9): 9 (complete kill)
Lamium purpureum [13]
  LAMPU control rating (0-9): 4 (injury)
Triticum aestivum [14]
  TRZAW control rating (0-9): 2 (slight effect)
Setaria viridis [15]
  SETVI control rating (0-9): 9 (complete kill)
Echinochloa crus-galli [16]
  ECHCG control rating (0-9): 6 (herbicidal effect)
Alopecurus myosuroides [17]
  ALOMY control rating (0-9): 2 (slight effect)
Helianthus annuus [18]
  HELAN control rating (0-9): 9 (complete kill)
Viola arvensis [19]
  VIOAR control rating (0-9): 6 (herbicidal effect)
Galium aparine [20]
  GALAP control rating (0-9): 0 (no effect)
Gossypium hirsutum [21]
  GOSHI control rating (0-9): 0 (no effect)
Ambrosia artemisifolia [22]
  AMBEL control rating (0-9): 0 (no effect)
Hordeum vulgare [23]
  HORVW control rating (0-9): 0 (no effect)
Amaranthus retroflexus [24]
  AMARE control rating (0-9): 0 (no effect)
Ipomoea hederacea [25]
  IPOHE control rating (0-9): 5 (definite injury)
Zea mays [26]
  ZEAMX control rating (0-9): 0 (no effect)
Abutilon theophrasti [27]
  ABUTH control rating (0-9): 0 (no effect)
Glycine max [28]
  GLXMA control rating (0-9): 0 (no effect)
Veronica persica [29]
  VERPE control rating (0-9): 5 (definite injury)
Lamium purpureum [30]
  LAMPU control rating (0-9): 7 (good herbicidal effect)
Triticum aestivum [31]
  TRZAW control rating (0-9): 0 (no effect)
Setaria viridis [32]
  SETVI control rating (0-9): 4 (injury)
Echinochloa crus-galli [33]
  ECHCG control rating (0-9): 0 (no effect)
Alopecurus myosuroides [34]
  ALOMY control rating (0-9): 0 (no effect)
Helianthus annuus [35]
  HELAN control rating (0-9): 0 (no effect)

## CC(NC(=O)c1nnc(C(C)(C)C)o1)c1cccs1 (racemic) [Example 5]
Viola arvensis [1]
  VIOAR control rating (0-9): 7 (good herbicidal effect)
Galium aparine [2]
  GALAP control rating (0-9): 5 (definite injury)
Gossypium hirsutum [3]
  GOSHI control rating (0-9): 9 (complete kill)
Ambrosia artemisifolia [4]
  AMBEL control rating (0-9): 9 (complete kill)
Hordeum vulgare [5]
  HORVW control rating (0-9): 4 (injury)
Amaranthus retroflexus [6]
  AMARE control rating (0-9): 5 (definite injury)
Ipomoea hederacea [7]
  IPOHE control rating (0-9): 6 (herbicidal effect)
Zea mays [8]
  ZEAMX control rating (0-9): 4 (injury)
Stellaria media [9]
  STEME control rating (0-9): 8 (approaching complete kill)
Abutilon theophrasti [10]
  ABUTH control rating (0-9): 8 (approaching complete kill)
Glycine max [11]
  GLXMA control rating (0-9): 8 (approaching complete kill)
Veronica persica [12]
  VERPE control rating (0-9): 9 (complete kill)
Lamium purpureum [13]
  LAMPU control rating (0-9): 1 (trace effect)
Triticum aestivum [14]
  TRZAW control rating (0-9): 4 (injury)
Setaria viridis [15]
  SETVI control rating (0-9): 6 (herbicidal effect)
Echinochloa crus-galli [16]
  ECHCG control rating (0-9): 4 (injury)
Alopecurus myosuroides [17]
  ALOMY control rating (0-9): 3 (moderate effect)
Helianthus annuus [18]
  HELAN control rating (0-9): 8 (approaching complete kill)
Viola arvensis [19]
  VIOAR control rating (0-9): 6 (herbicidal effect)
Galium aparine [20]
  GALAP control rating (0-9): 0 (no effect)
Gossypium hirsutum [21]
  GOSHI control rating (0-9): 0 (no effect)
Ambrosia artemisifolia [22]
  AMBEL control rating (0-9): 1 (trace effect)
Hordeum vulgare [23]
  HORVW control rating (0-9): 0 (no effect)
Amaranthus retroflexus [24]
  AMARE control rating (0-9): 5 (definite injury)
Ipomoea hederacea [25]
  IPOHE control rating (0-9): 0 (no effect)
Zea mays [26]
  ZEAMX control rating (0-9): 0 (no effect)
Stellaria media [36]
  STEME control rating (0-9): 8 (approaching complete kill)
Abutilon theophrasti [27]
  ABUTH control rating (0-9): 7 (good herbicidal effect)
Glycine max [28]
  GLXMA control rating (0-9): 0 (no effect)
Veronica persica [29]
  VERPE control rating (0-9): 8 (approaching complete kill)
Lamium purpureum [30]
  LAMPU control rating (0-9): 2 (slight effect)
Triticum aestivum [31]
  TRZAW control rating (0-9): 0 (no effect)
Setaria viridis [32]
  SETVI control rating (0-9): 8 (approaching complete kill)
Echinochloa crus-galli [33]
  ECHCG control rating (0-9): 6 (herbicidal effect)
Alopecurus myosuroides [34]
  ALOMY control rating (0-9): 4 (injury)
Helianthus annuus [35]
  HELAN control rating (0-9): 0 (no effect)

— patent EP0726263A2, “Herbicidal (1,3,4)oxadiazoles and thiadiazoles” (American Cyanamid Company, priority 1995, dated 1996)
